Test results taken from article PMC10249896, “AI-Assisted chemical probe discovery for the understudied Calcium-Calmodulin Dependent Kinase, PNCK” (PLOS Computational Biology, 2023).
pIC50: −log10 of the molar value. Several values for one entry are separate records, joined by “and”; a condition that tells them apart may be missing. Equal entries are not always repeated.

Target: T1, PNCK Nano-luciferase fusion (Homo sapiens, UniProt Q6P2M8)
T1 construct: host or cells: HEK293
Test: NanoBRET Target Engagement Intracellular Kinase Assay, cell-based PNCK binding screen and dose response in HEK293 cells
Details: for inhibition at 1 µM: compound 1uM, read-out: Avg. Normalized % Inhibition, 1uM, Nanobret; for inhibition at 1 µM / inhibition at 10 µM / pIC50: HEK293; for inhibition at 1 µM / inhibition at 10 µM: K10 tracer 1uM, normalized to staurosporine and DMSO; for inhibition at 10 µM: compound 10uM, read-out: Avg. Normalized % Inhibition, 10uM, Nanobret; for pIC50: 8-point concentration-response; for NanoBRET binding, result in words: cell-based screen / comparison with parent hit; for cell permeability: stated on testing in NanoBRET assay
Procedure: The NanoBRET Target Engagement Intracellular Kinase Assay (Promega N2520) is a cell-based binding screen which reads loss of BRET signal as a result of target binding. A PNCK Nano-luciferase fusion vector plasmid was generated custom by Promega. The K-10 tracer was used for the assay, as determined by Promega. The plasmid was maxiprepped by Genewiz for use in all future assays. HEK293 cells were seeded in a T175 flask in DMEM with 10% FBS. The following day, cells were counted to 10,000, resuspended in assay media (Optimem with no phenol red, 1% FBS). Plasmid and transfection reagent (Fugene HD, Promega E2311) were added to the mixture and cells were seeded in a white 96-well plate. After 20–24 hours, media was changed, and the assay proceeded according to protocol. K10 tracer was added at the recommended concentration of 1uM while compounds were initially screened at both 10uM and 1uM. Cells incubated with compound at 37 degrees Celsius for a maximum of 2 hours before the plate was read using Clariostar Plus. Data was normalized to Staurosporine and DMSO controls. For compounds selected for further analysis, dose response curves were generated using the same testing protocol but at 8 different concentrations: 24uM, 12uM, 6uM, 3uM, 1.5uM, .75uM 0.375uM and 0.1875uM. UM195 was tested with concentrations from 12uM to 0.09375. Similarly, compounds from the analog by catalog analysis were tested at concentrations from 24uM to 0.1875uM.
Data analysis of ADP Kinase Glo results were carried out per the manufacturer’s instructions. Results were represented as a percent decrease in activity. Data was normalized to staurosporine (positive control) as 100% decrease and DMSO (negative control) as a 0% decrease. Data for NanoBRET was analyzed by dividing the acceptor by the donor emission and […] to obtain raw millibret units (mBU). Background was subtracted using control emission averages. Data was normalized to positive and negative controls of staurosporine and DMSO. Concentration-response curves were plotted in GraphPad Prism 8 and IC50s were extrapolated using non-linear fit with concentrations transformed to logarithmic scale. Baseline was held constant and represented the average mBU of staurosporine controls while the top was constrained to represent the average mBU of DMSO controls. Error bars on dose-response curves represent standard deviations.

T1 sequence (Q6P2M8 whole entry, the tested form may be a part): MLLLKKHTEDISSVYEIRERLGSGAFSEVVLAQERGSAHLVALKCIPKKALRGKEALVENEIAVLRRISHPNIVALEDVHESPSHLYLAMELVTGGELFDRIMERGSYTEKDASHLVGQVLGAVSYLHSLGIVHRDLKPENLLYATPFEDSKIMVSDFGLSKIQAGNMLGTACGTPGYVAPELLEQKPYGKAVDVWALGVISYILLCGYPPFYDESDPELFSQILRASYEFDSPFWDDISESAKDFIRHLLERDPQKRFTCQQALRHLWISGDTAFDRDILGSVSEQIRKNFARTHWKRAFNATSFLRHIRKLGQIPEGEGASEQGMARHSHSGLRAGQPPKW

inhibition at 1 µM | inhibition at 10 µM | SMILES | also measured
27.9% | 74% | O=C1CNC(=O)N1CCCOc1ccc2c3c(c(=O)oc2c1)CCCCC3 [UM_258] | 
10.5% | 49.3% | Cc1cc(C)n2nc(SCc3nc(-c4ccccc4)no3)nc2n1 [UM_217] | 
1.43% | 27.6% | Cc1nc(N2CCC[C@H]3C(=O)NC[C@H]32)c2c(C)c(C)sc2n1 [UM_194] | 
22.4% | 49.4% | CCOCCn1c(CN2CCN(CC)CC2)nc2c1c(O)nc(=O)n2C [UM_227] | 
17% | 44.6% | Cn1c(=O)n(C(N)=O)c(=O)c2c1nc1n2CCCN1c1ccc(F)cc1 [UM_223] | 
7.37% | 14.2% | O=C(O)c1ccc(-c2nc(O)c3c4c(sc3n2)CCCC4)cc1 [UM_233] | 
0% | 21.5% | c1ccc2c(c1)ccn2CCc1nc(-c2cnccn2)no1 [UM_202] | 
21.5% | 63.5% | c1ccc2c(-c3nnc(Sc4cnccn4)o3)cccc2c1 [UM_265] | 
33.4% | 74.7% | O=c1[nH]c(CSc2nc3ccccc3o2)nc2ccc(Cl)cc12 [UM_280] | pIC50: 4.83; NanoBRET binding, result in words: did not demonstrate significantly improved binding
21.8% | 51.6% | O=c1oc2cc(OC3OC(CO)C(O)C(O)C3O)c(Cl)cc2c2c1CCCC2 (stereo not drawn) [UM_226] | 
41.2% | 98.5% | O=c1[nH]c(CSc2ccc3ccccc3n2)nc2ccc(Cl)cc12 [UM_210, 6-chloro-2-[(quinolin-2-ylsulfanyl)methyl]-3,4-dihydroquinazolin-4-one] | pIC50: 5.09; Dose-Response Curve Data (NanoBRET signal, replicates) (Concentration 1.20E-05 M): 7.35 and 5.53 and 7.51 and 6.90; Dose-Response Curve Data (NanoBRET signal, replicates) (Concentration 1.50E-06 M): 8.14 and 8.22 and 8.79 and 8.09; Dose-Response Curve Data (NanoBRET signal, replicates) (Concentration 1.88E-07 M): 8.61 and 9.43 and 9.50 and 8.74; Dose-Response Curve Data (NanoBRET signal, replicates) (Concentration 2.40E-05 M): 4.79 and 5.28 and 5.02 and 4.59; Dose-Response Curve Data (NanoBRET signal, replicates) (Concentration 3.00E-06 M): 7.91 and 7.57 and 6.47 and 7.46; Dose-Response Curve Data (NanoBRET signal, replicates) (Concentration 3.75E-07 M): 9.79 and 9.21 and 8.99 and 8.71; Dose-Response Curve Data (NanoBRET signal, replicates) (Concentration 6.00E-06 M): 7.06 and 7.86 and 6.98 and 6.97; Dose-Response Curve Data (NanoBRET signal, replicates) (Concentration 7.50E-07 M): 8.34 and 8.97 and 8.05 and 9.09
27.2% | 62.3% | Cn1cnnc1SCc1nc(N)c2c3c(sc2n1)CCCC3 [UM_214] | 
2.34% | 25.4% | O=C(O)c1cccnc1SCCCN1C(=O)c2cccc3cccc(c23)C1=O [UM_216] | 
25.9% | 46.3% | Cc1nc2c(c(=O)[nH]1)CCN(Cc1cc3ccccc3n(C)c1=O)CC2 [UM_231] | 
5.12% | 22.7% | O=C(O)c1cccc(S(=O)(=O)Nc2nc3ccc(Cl)cc3s2)c1 [UM_203] | 
0% | 49.9% | O=C(c1c(F)cc(F)cc1F)C1CCN(C(=O)c2ccnnc2)CC1 [UM_212] | 
 |  | CNC(=O)[C@@H]1C[C@@H](N)CN1C(=O)CCc1nc(-c2cccnc2)no1 [UM_244] | cell permeability: not cell permeable
0% | 19.4% | Cc1noc2ncnc(N3CCC(n4c(C)nc5ccccc54)CC3)c12 [UM_215] | 
5.1% | 23.4% | O=c1[nH]c(CSc2ccccc2)nc2ccc(Cl)cc12 [UM_279] | NanoBRET binding, result in words: did not demonstrate significantly improved binding
3.26% | 30.8% | Cc1cc(C)n2nc(SCc3cc(=O)n4cc(Br)ccc4n3)nc2n1 [UM_201] | 
4.02% | 10.3% | O=C(O)c1cccc(NS(=O)(=O)/C=C/c2ccc(Cl)cc2)c1 [UM_235] | 
35.2% | 97.6% | C[C@@H]1CCc2c(sc(NC(=O)c3ccc(Cl)s3)c2C(N)=O)C1 [UM_228, (6R)-2-(5-chlorothiophene-2-amido)-6-methyl-4,5,6,7-tetrahydro-1-benzothiophene-3-carboxamide] | pIC50: 5.08; Dose-Response Curve Data (NanoBRET signal, replicates) (Concentration 1.20E-05 M): 6.59 and 6.36 and 6.71; Dose-Response Curve Data (NanoBRET signal, replicates) (Concentration 1.50E-06 M): 8.32 and 8.64 and 8.50; Dose-Response Curve Data (NanoBRET signal, replicates) (Concentration 1.88E-07 M): 8.44 and 8.73 and 8.35; Dose-Response Curve Data (NanoBRET signal, replicates) (Concentration 2.40E-05 M): 5.75 and 5.50 and 5.61; Dose-Response Curve Data (NanoBRET signal, replicates) (Concentration 3.00E-06 M): 8.33 and 8.45 and 7.70; Dose-Response Curve Data (NanoBRET signal, replicates) (Concentration 3.75E-07 M): 8.86 and 8.18 and 8.92; Dose-Response Curve Data (NanoBRET signal, replicates) (Concentration 6.00E-06 M): 7.13 and 7.60 and 7.05; Dose-Response Curve Data (NanoBRET signal, replicates) (Concentration 7.50E-07 M): 8.73 and 8.94 and 8.43

inhibition at 1 µM | inhibition at 10 µM | SMILES | also measured
16.7% | 61.2% | Cc1cc(C)n2nc(SCc3nc4ccccc4s3)nc2n1 [UM_218] | 
18% | 33.3% | CN(CC(=O)NC(C)(C)C)Cn1nc2c3c(cccc31)C(=O)c1ccccc1-2 [UM_224] | 
0% | 16.9% | Cn1cnn(CN2CCN(c3ccc(O)cc3)CC2)c1=S [UM_199] | 
21.7% | 47.7% | Cc1nc2c(sc3nc(N4CCOCC4)c4c(c32)CC(C)(C)OC4)c(=O)o1 [UM_225] | 
0% | 0% | CC1CCc2c(sc(NC(=O)c3ccc([N+](=O)[O-])s3)c2C(N)=O)C1 (stereo not drawn) [UM_250] | 
22.8% | 41.8% | COc1ccccc1N(CCC(N)=O)C(=O)COc1ccc2c(c1)CCCC2=O [UM_249] | 
0% | 17.7% | COc1ccc2c(O)c(C(=O)N(C)Cc3c(C)noc3C)cnc2c1 [UM_200] | 
37.1% | 68.6% | Cc1nc2c3ccccc3nc(SCCCn3c(=O)[nH]c4ccccc43)n2n1 [UM_277] | pIC50: 4.79
 |  | O=C(CSc1ncccn1)c1ccc(O)c(O)c1 [UM_243] | cell permeability: not cell permeable
0% | 1.24% | CC1CCc2c(sc(NC(=O)c3cccs3)c2C(N)=O)C1 (stereo not drawn) [UM_255] | 
27.5% | 54% | COc1cccc(-c2nc3c(c(=O)[nH]2)Cc2cc(Br)ccc2O3)c1O [UM_229] | 
2.86% | 51% | N#Cc1cnc(Sc2nnc(C3CCCCC3)o2)cn1 [UM_256] | 
0% | 0% | O=C(O)CCc1nnc(SCc2c(Cl)cccc2Cl)[nH]c1=O [UM_193] | cell permeability: not cell permeable
26.6% | 54.5% | O=c1[nH]c(CSc2ccc3ccccc3n2)nc2ccccc12 [UM_281] | 
22.1% | 100% | N#Cc1cnc(Sc2nnc(-c3cccc4ccccc34)o2)cn1 [UM_195, 5-[5-(naphthalen-1-yl)-1,3,4-oxadiazol-2-yl]sulfanylpyrazine-2-carbonitrile] | pIC50: 5.47; Dose-Response Curve Data (NanoBRET signal, replicates) (Concentration 1.20E-05 M): 5.32 and 5.59 and 5.20; Dose-Response Curve Data (NanoBRET signal, replicates) (Concentration 1.50E-06 M): 7.80 and 7.94 and 7.90; Dose-Response Curve Data (NanoBRET signal, replicates) (Concentration 1.88E-07 M): 9.08 and 9.29 and 8.92; Dose-Response Curve Data (NanoBRET signal, replicates) (Concentration 3.00E-06 M): 7.45 and 6.56 and 7.25; Dose-Response Curve Data (NanoBRET signal, replicates) (Concentration 3.75E-07 M): 9.32 and 8.97 and 9.18; Dose-Response Curve Data (NanoBRET signal, replicates) (Concentration 6.00E-06 M): 5.79 and 6.12 (2×); Dose-Response Curve Data (NanoBRET signal, replicates) (Concentration 7.50E-07 M): 8.84 and 8.55 and 8.27; Dose-Response Curve Data (NanoBRET signal, replicates) (Concentration 9.38E-08 M): 9.33 and 9.39 and 8.87
0.98% | 31.1% | NC(=O)Cn1cnc2cc(-c3ccc(Cl)cc3)sc2c1=O [UM_219] | 
28% | 71.1% | NC(=O)Nc1cccc(C(=O)Nc2cc3c(cc2Br)OCCO3)c1 [UM_222] | 
34.2% | 71.8% | CCn1c(SCCCn2c(=O)[nH]c3ccccc32)n[nH]c1=O [UM_274] | pIC50: 4.99
1.23% | 27% | Cc1ccc2[nH]c(SCc3cc(=O)n4ccccc4n3)nc2c1 [UM_197] | 
10.9% | 37.8% | CCc1nc(N)nc(SCCCn2c(=O)[nH]c3ccccc32)n1 [UM_276] | 
5.53% | 55.3% | Clc1nc(-c2cccnc2)nc2sc3c(c12)CCCC3 [UM_209] | 
